Data on 17 compounds can be found in patent US11708348B2, “Protease inhibitors for treatment of coronavirus infections” (The Scripps Research Institute, priority 2021, dated 2023).

SMILES strings stand for the structures.

One test has as its system SARS-CoV-2 strain USA-WA1/2020. In words: microbe, parasite or virus in culture. It is filed as cell-based. Particulars: Severe acute respiratory syndrome coronavirus 2, HeLa-ACE2, 24 h, HeLa-ACE2 cells, SARS-CoV-2 infection, 24 h; class symbols; read-out: EC50, uM (Hela).
As for `CC(C)(C)C[C@H](O)C(=O)N1CC2(CC2)C[C@H]1C(=O)N[C@@H](C[C@@H]1CCNC1=O)C(=O)COC(F)(F)F` [Compound 349, (S)-5-((S)-2-hydroxy-4,4-dimethylpentanoyl)-N-((S)-3-oxo-1-((S)-2-oxopyrrolidin-3-yl)-4-(trifluoromethoxy)butan-2-yl)-5-azaspiro[2.4]heptane-6-carboxamide], the EC50 was below 0.05 µM.
As to `O=C1NCC[C@H]1C[C@H](NC(=O)[C@@H]1[C@H]2CCC[C@H]2CN1C(=O)[C@H](O)CC1CC1)C(=O)COC(F)(F)F` [Compound 393, (1S,3aR,6aS)-2-((R)-3-cyclopropyl-2-hydroxypropanoyl)-N-((S)-3-oxo-1-((S)-2-oxopyrrolidin-3-yl)-4-(trifluoromethoxy)butan-2-yl)octahydrocyclo-penta[c]pyrrole-1-carboxamide], the EC50 is below 0.05 µM.
Still for that read-out and setting: the result for `O=C(Nc1ccccc1Cl)C(=O)NC(CC1CCOCC1)C(=O)N[C@@H](C[C@@H]1CCNC1=O)C(=O)COc1c(F)c(F)cc(F)c1F` (stereo partly drawn) [Compound 134, N1-(2-chlorophenyl)-N2-(1-oxo-1-(((S)-3-oxo-1-((S)-2-oxopyrrolidin-3-yl)-4-(2,3,5,6-tetrafluorophenoxy)butan-2-yl)amino)-3-(tetrahydro-2H-pyran-4-yl)propan-2-yl)oxalamide] reads below 0.05 µM; that for `CC(C)(O)C(=O)N1C[C@H]2[C@@H]([C@H]1C(=O)N[C@@H](C[C@@H]1CCNC1=O)C(=O)COC(F)(F)F)C2(C)C` [Compound 351, (1R,2S,5S)-3-(2-hydroxy-2-methylpropanoyl)-6,6-dimethyl-N-((S)-3-oxo-1-((S)-2-oxopyrrolidin-3-yl)-4-(trifluoromethoxy)butan-2-yl)-3-azabicyclo-[3.1.0]hexane-2-carboxamide], 0.05 to 0.2 µM.
The same measure, in the same setting: with `O=C(Nc1ccccc1)C(=O)N[C@@H](CC1CCCC1)C(=O)N[C@@H](C[C@@H]1CCNC1=O)C(=O)COc1c(F)c(F)cc(F)c1F` [Compound 44, N1-((S)-3-cyclopentyl-1-oxo-1-(((S)-3-oxo-1-((S)-2-oxopyrrolidin-3-yl)-4-(2,3,5,6-tetrafluorophenoxy)butan-2-yl)amino)propan-2-yl)-N2-phenyloxalamide] the figure was below 0.05 µM; with `CC(C)(C)NC(=O)C(=O)NC(CC1CCOCC1)C(=O)N[C@@H](C[C@@H]1CCNC1=O)C(=O)COC(F)(F)F` (stereo partly drawn) [Compound 181, N1-(tert-butyl)-N2-(l-oxo-1-(((S)-3-oxo-l-((S)-2-oxopyrrolidin-3-yl)-4-(trifluoromethoxy)butan-2-yl)amino)-3-(tetrahydro-2H-pyran-4-yl)propan-2-yl)oxalamide], 0.2 to 0.5 µM; with `CC(C)C[C@H](NC(=O)c1cc2ccncc2[nH]1)C(=O)N[C@@H](C[C@@H]1CCNC1=O)C(=O)COC(F)(F)F` [Compound 187, N-((S)-4-methyl-1-oxo-1-(((S)-3-oxo-1-((S)-2-oxopyrrolidin-3-yl)-4-(trifluoromethoxy)butan-2-yl)amino)pentan-2-yl)-1H-pyrrolo[2,3-c]pyridine-2-carboxamide], 0.05 to 0.2 µM.
Still for that read-out and setting: the result for `COc1ccc(C(C)=O)cc1CC(=O)N[C@@H](CC(C)C)C(=O)N[C@@H](C[C@@H]1CCNC1=O)C(=O)COc1c(F)c(F)cc(F)c1F` [Compound 154, (S)-2-(2-(5-acetyl-2-methoxyphenyl)acetamido)-4-methyl-N—((S)-3-oxo-1-((S)-2-oxopyrrolidin-3-yl)-4-(2,3,5,6-tetrafluorophenoxy)butan-2-yl)pentanamide] reads below 0.05 µM.

The test is the same for the next values; noted with them: Severe acute respiratory syndrome coronavirus 2, HeLa-ACE2, 24 h, HeLa-ACE2 cells, SARS-CoV-2 infection, 24 h; read-out: EC50, uM (Hela).
Turning to `CC(C)(C)c1ccccc1NC(=O)C(=O)N1C[C@@H]2CCC[C@@H]2[C@H]1C(=O)N[C@@H](C[C@@H]1CCNC1=O)C(=O)COC(F)(F)F` [Compound 615, (1S,3aR,6aS)-2-(2-((2-(tert-butyl)phenyl)amino)-2-oxoacetyl)-N-((S)-3-oxo-1-((S)-2-oxopyrrolidin-3-yl)-4-(trifluoromethoxy)butan-2-yl)octahydrocyclopenta[c]pyrrole-1-carboxamide], the EC50 was below 0.05 µM.
On the same count and under the same terms, with `CC(C)(C)NC(=O)C(=O)N1[C@H](C(=O)N[C@@H](C[C@@H]2CCNC2=O)C(=O)COC(F)(F)F)C[C@@H]2CCCC[C@@H]21` [Compound 498, (2S,3aS,7aS)-1-(2-(tert-butylamino)-2-oxoacetyl)-N-((S)-3-oxo-1-((S)-2-oxopyrrolidin-3-yl)-4-(trifluoromethoxy)butan-2-yl)octahydro-1H-indole-2-carboxamide] the figure was 0.05 to 0.2 µM.
Still for that read-out and setting: with `Cc1ccccc1NC(=O)C(=O)N1CC2(CC2)C[C@H]1C(=O)N[C@@H](C[C@@H]1CCNC1=O)C(=O)COC(F)(F)F` [Compound 527, (S)-N-((S)-3-oxo-1-((S)-2-oxopyrrolidin-3-yl)-4-(trifluoromethoxy)butan-2-yl)-5-(2-oxo-2-(o-tolylamino)acetyl)-5-azaspiro[2.4]heptane-6-carboxamide] the figure was below 0.05 µM; with `O=C1NCC[C@H]1C[C@H](NC(=O)[C@@H]1[C@H]2CCC[C@H]2CN1C(=O)C(=O)N1CCOCC1)C(=O)COC(F)(F)F` [Compound 544, (1S,3aR,6aS)-2-(2-morpholino-2-oxoacetyl)-N-((S)-3-oxo-1-((S)-2-oxopyrrolidin-3-yl)-4-(trifluoromethoxy)butan-2-yl)octahydrocyclo-penta[c]pyrrole-1-carboxamide], 0.5 to 1 µM; with `CCC(=O)N1CC2(CC2)C[C@H]1C(=O)N[C@@H](C[C@@H]1CCNC1=O)C(=O)COC(F)(F)F` [Compound 688, (S)-N-((S)-3-oxo-1-((S)-2-oxopyrrolidin-3-yl)-4-(trifluoromethoxy)butan-2-yl)-5-propionyl-5-azaspiro[2.4]heptane-6-carboxamide], 0.05 to 0.2 µM.
The same measure, in the same setting: the result for `O=C1NCC[C@H]1C[C@H](NC(=O)[C@@H]1CC2(CC2)CN1C(=O)C1(O)CCCC1)C(=O)COC(F)(F)F` [Compound 423, (S)-5-(l-hydroxycyclopentane-1-carbonyl)-N-((S)-3-oxo-1-((S)-2-oxopyrrolidin-3-yl)-4-(trifluoromethoxy)butan-2-yl)-5-azaspiro[2.4]heptane-6-carboxamide] reads 0.05 to 0.2 µM; that for `O=C(Nc1cccc(Cl)c1)C(=O)N1CC2(CC2)C[C@H]1C(=O)N[C@@H](C[C@@H]1CCNC1=O)C(=O)COC(F)(F)F` [Compound 607, (S)-5-(2-((3-chlorophenyl)amino)-2-oxoacetyl)-N-((S)-3-oxo-1-((S)-2-oxopyrrolidin-3-yl)-4-(trifluoromethoxy)butan-2-yl)-5-azaspiro[2.4]heptane-6-carboxamide], below 0.05 µM; that for `CC(C)(C)NC(=O)C(=O)N1[C@@H]2C[C@@H]2C[C@H]1C(=O)N[C@@H](C[C@@H]1CCNC1=O)C(=O)COC(F)(F)F` [Compound 521], 0.2 to 0.5 µM.
Consider `CC(C)C[C@H](Nc1cc2ccccc2[nH]c1=O)C(=O)N[C@@H](C[C@@H]1CCNC1=O)C(=O)COC(F)(F)F` [Compound 465, (S)-4-methyl-2-((2-oxo-1,2-dihydroquinolin-3-yl)amino)-N-((S)-3-oxo-1-((S)-2-oxopyrrolidin-3-yl)-4-(trifluoromethoxy)butan-2-yl)pentanamide], for which the EC50 lay within 0.2 to 0.5 µM.
